Results as given in patent US7314620B2, “Methods for diagnosis and treatment of PH domain signal transduction disorders” (New York University, priority 1995, dated 2008).
Entries after “also recorded” stand apart in the source; their conditions may differ.

Columns and labels:
PLCδ-PH = biological target: T1, PLCδ-PH (Rattus norvegicus, UniProt P10688); test: Spin-column competition assay for 3H-I(145)P3 binding to PLCδ-PH
T1 construct: initiator methionine (N); made in house; host or cells: Escherichia coli (pET11a, T7 system)
T1 sequence (P10688 20-136): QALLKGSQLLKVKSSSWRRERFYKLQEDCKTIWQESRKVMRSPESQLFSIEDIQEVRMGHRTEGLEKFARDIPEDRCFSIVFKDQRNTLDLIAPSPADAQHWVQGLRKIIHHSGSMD
Procedure: A spin-column based competition assay was employed to determine relative affinities of other inositol polyphosphates for PLCδ-PH. […] The sample (40 μl) was then applied to a Biogel P6 gel filtration spin-column. […] Each curve represents the mean of two or more experiments.
The sample was then applied to a pre-spun 1 ml spin-column containing Biogel P6 desalting medium. The spin-column was then centrifuged for 4 minutes at 900 g. Essentially all of the protein was determined to pass through the column under these conditions, and no significant counts were seen to pass through the column in the absence of protein. After spinning, all of the material that passed through the column was added to scintillation fluid for counting. Counts were normalized to those obtained in the absence of competitor, and plotted as fraction of maximal binding. […]
Values for which a precise number is given represent the mean of at least two experiments.

Dyn-PH = biological target: T2, Dyn-PH (Homo sapiens, UniProt Q05193); test: Equilibrium gel filtration (Hummel and Dreyer) of PH domain binding to lipid vesicles; details: PIP2-containing vesicles
T2 construct: The PH domains from PLC-δ1, and dynamin, as well as the N-terminal PH domain of pleckstrin; made in house; host or cells: Escherichia coli (T7 system)
T2 sequence (Q05193 519-625 limits assumed): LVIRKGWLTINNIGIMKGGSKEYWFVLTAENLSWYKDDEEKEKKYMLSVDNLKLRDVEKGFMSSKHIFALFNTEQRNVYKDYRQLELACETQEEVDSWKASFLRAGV
Procedure: A 150×7.5 mm Superdex 75 column, attached to a Dionex HPLC system, was equilibrated with buffer containing PH domain at around 5 μM (depending upon the experiment). A suspension of vesicles that also contained 5 μM PH domain was then injected. In the absence of interaction between the PH domain and the vesicles, the resulting column profile (detected by absorbance at 280 nm) reflects only the lipid peak. However, if there is significant interaction, a trough is observed at a position corresponding to the elution position of the free PH domain, since the lipids have removed free PH domain from the column buffer. When such a trough was observed, in order to determine a KD for the interaction, a series of higher concentrations of PH domain were injected, all with constant lipid concentration. A plot of trough area against [PH] in the injected sample was linear, becoming positive when excess free protein was present in the injected sample (see FIG. 5B). This line was used to determine the point at which no trough was observed. […] Since [PH]total as well as [lipid]total in the injected sample are known, KD can be determined, as KD=([PH]free×[lipid]free)/[complex]. […]
We also utilized the equilibrium gel-filtration approach described by Hummel, J. P., and Dreyer, W. J., Biochim. […] If an interaction is observed, its KD can be determined as described in Experimental Procedures. […]

SH2 domain of Lck = biological target: T3, SH2 domain of Lck (Homo sapiens, UniProt P06239); test: Equilibrium gel filtration control with SH2 domain; type: binding; details: low salt; 50 mM MOPS pH 6.8, 100 mM NaCl
T3 construct: Control experiments performed with the SH2 domain of Lck; made in house
T3 sequence (P06239 127-224 limits assumed): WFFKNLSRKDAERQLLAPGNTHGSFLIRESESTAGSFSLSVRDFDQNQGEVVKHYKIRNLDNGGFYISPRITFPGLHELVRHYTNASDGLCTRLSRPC

[1] = system: any PH domain (PLCδ-PH, Dyn-PH, PlecN-PH); test: Centrifugation-based assay of PH domain binding to lipid vesicles; details: lipid at 5% in DMPC vesicles
Procedure: Attempts to detect PH domain association with lipid vesicles were performed exactly as described by Harlan, J. E. et al., Nature 371, 168-170, 1994. In addition to using the BCA protein assay reagent, for which lipid blanks were rather high compared with the values expected for the protein concentrations employed, we also measured OD278 of the supernatants after addition of SDS in order to detect removal of protein upon pelleting vesicles. […] Initially, we performed a centrifugation-based assay, using the conditions described by Harlan, J. E. et al., Nature 371, 168-170, 1994. […] Similarly, we were unable to detect association of any of the PH domains with the same vesicles by using size-exclusion chromatography to separate protein and lipid. Any complexes between the PH domains and these vesicles therefore form with low affinity and/or have fast dissociation kinetics, such that they dissociate in the separation methods employed.

Phosphatidylinositol-(4,5)-bisphosphate [PIP2]
Kd (PLCδ-PH; PIP2: 5% in DMPC vesicles, assuming 50% available, read-out: KD from competition assay): ~400 nM
competition for I(145)P3 binding by lipid vesicles (PLCδ-PH; lipid at 5% in DMPC vesicles or pure DMPC, assuming 50% of lipid on the surface): almost as effective as that seen with unlabelled I(145)P3; also recorded: as effectively as can GPIP2
binding weaker than I(145)P3 (PLCδ-PH; relative to I(145)P3 binding to PLCδ-PH): two-fold weaker
binding to vesicles (Dyn-PH): no detectable binding
binding to vesicles (SH2 domain of Lck): also binds
binding to vesicles [1]: no binding
